The text below walks through data of patent US10239869B2, “Sulfonamide compounds as voltage-gated sodium channel modulators” (LUPIN LIMITED, priority 2015, dated 2019).

By IC50 is commonly meant the concentration at which inhibition is half-maximal. As usually defined, the inhibition is the drop in the measured response relative to a control, in per cent. Lower therefore signals little suppression.

One data set has as its target Nav 1.7 (Homo sapiens (Human), UniProt Q15858). As to the kind of experiment: Inhibition of sodium channels, Red Membrane Potential Dye FLIPR assay, veratridine depolarization. It is filed as cell-based. As to conditions: HEK-293 cells overexpressing the channel; read-out: Nav1.7 IC50.
In the next data set the target is Nav 1.5 (Homo sapiens (Human), UniProt Q14524). Described as above. It is filed as cell-based. As to conditions: HEK-293 cells overexpressing the channel; for inhibition at 10 µM: HEK-293 cells overexpressing Nav 1.5.
Setting [1] is: read-out: Nav1.5 IC50 (bound given in μM).

Like-named read-outs stand apart in the source and are kept apart here. A value given as a limit tells only on which side of the number the result lay.

Sequence of Nav 1.7 (Q15858 whole entry): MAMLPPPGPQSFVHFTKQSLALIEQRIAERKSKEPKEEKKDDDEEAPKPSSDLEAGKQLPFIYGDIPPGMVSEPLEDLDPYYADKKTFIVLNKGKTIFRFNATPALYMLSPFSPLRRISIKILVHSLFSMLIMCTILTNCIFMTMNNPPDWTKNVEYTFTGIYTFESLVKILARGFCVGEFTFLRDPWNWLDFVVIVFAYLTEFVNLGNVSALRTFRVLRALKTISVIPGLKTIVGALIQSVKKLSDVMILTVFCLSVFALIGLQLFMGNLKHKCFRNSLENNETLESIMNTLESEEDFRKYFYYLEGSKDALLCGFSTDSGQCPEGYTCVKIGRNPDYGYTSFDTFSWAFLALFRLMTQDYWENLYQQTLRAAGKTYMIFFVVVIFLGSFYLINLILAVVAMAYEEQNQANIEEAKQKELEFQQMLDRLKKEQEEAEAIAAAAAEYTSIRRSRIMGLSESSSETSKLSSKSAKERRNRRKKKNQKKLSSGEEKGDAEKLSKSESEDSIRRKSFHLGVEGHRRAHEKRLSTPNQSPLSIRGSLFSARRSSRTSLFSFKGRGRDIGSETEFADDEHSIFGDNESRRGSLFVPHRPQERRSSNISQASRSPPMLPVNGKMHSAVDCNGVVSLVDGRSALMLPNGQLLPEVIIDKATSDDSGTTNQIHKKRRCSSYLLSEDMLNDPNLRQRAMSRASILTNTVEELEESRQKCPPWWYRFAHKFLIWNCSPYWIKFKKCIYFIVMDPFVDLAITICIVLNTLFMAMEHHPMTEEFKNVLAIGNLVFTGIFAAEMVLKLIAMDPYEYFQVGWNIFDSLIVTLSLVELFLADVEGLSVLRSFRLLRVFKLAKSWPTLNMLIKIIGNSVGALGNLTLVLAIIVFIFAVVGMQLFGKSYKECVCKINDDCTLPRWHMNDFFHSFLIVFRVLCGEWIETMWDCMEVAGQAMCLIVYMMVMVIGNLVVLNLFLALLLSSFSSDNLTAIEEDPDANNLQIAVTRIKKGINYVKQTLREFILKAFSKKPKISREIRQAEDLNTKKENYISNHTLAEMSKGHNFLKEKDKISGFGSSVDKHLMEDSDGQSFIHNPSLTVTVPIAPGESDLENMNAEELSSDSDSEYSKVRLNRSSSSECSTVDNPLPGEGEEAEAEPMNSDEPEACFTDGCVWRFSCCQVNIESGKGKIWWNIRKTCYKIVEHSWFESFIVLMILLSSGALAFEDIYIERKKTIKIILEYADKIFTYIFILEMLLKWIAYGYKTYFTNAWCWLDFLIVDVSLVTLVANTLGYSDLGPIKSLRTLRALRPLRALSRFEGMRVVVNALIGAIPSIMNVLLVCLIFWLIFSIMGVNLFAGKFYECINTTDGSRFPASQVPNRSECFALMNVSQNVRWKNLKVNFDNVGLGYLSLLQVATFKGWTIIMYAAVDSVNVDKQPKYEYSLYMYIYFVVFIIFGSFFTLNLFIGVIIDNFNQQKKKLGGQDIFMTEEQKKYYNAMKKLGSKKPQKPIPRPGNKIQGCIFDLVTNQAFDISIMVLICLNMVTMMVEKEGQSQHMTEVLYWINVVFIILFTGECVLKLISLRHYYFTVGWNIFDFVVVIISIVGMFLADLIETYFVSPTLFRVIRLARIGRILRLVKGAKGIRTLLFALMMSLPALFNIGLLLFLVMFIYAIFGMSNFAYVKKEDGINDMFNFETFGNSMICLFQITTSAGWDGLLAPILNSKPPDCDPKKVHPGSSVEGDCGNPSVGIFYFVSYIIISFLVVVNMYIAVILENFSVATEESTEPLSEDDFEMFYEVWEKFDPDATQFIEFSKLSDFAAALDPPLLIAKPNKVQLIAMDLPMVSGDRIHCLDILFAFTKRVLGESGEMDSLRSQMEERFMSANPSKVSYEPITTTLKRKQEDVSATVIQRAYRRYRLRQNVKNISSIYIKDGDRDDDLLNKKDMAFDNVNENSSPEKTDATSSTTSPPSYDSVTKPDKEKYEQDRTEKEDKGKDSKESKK
Sequence of Nav 1.5 (Q14524 whole entry): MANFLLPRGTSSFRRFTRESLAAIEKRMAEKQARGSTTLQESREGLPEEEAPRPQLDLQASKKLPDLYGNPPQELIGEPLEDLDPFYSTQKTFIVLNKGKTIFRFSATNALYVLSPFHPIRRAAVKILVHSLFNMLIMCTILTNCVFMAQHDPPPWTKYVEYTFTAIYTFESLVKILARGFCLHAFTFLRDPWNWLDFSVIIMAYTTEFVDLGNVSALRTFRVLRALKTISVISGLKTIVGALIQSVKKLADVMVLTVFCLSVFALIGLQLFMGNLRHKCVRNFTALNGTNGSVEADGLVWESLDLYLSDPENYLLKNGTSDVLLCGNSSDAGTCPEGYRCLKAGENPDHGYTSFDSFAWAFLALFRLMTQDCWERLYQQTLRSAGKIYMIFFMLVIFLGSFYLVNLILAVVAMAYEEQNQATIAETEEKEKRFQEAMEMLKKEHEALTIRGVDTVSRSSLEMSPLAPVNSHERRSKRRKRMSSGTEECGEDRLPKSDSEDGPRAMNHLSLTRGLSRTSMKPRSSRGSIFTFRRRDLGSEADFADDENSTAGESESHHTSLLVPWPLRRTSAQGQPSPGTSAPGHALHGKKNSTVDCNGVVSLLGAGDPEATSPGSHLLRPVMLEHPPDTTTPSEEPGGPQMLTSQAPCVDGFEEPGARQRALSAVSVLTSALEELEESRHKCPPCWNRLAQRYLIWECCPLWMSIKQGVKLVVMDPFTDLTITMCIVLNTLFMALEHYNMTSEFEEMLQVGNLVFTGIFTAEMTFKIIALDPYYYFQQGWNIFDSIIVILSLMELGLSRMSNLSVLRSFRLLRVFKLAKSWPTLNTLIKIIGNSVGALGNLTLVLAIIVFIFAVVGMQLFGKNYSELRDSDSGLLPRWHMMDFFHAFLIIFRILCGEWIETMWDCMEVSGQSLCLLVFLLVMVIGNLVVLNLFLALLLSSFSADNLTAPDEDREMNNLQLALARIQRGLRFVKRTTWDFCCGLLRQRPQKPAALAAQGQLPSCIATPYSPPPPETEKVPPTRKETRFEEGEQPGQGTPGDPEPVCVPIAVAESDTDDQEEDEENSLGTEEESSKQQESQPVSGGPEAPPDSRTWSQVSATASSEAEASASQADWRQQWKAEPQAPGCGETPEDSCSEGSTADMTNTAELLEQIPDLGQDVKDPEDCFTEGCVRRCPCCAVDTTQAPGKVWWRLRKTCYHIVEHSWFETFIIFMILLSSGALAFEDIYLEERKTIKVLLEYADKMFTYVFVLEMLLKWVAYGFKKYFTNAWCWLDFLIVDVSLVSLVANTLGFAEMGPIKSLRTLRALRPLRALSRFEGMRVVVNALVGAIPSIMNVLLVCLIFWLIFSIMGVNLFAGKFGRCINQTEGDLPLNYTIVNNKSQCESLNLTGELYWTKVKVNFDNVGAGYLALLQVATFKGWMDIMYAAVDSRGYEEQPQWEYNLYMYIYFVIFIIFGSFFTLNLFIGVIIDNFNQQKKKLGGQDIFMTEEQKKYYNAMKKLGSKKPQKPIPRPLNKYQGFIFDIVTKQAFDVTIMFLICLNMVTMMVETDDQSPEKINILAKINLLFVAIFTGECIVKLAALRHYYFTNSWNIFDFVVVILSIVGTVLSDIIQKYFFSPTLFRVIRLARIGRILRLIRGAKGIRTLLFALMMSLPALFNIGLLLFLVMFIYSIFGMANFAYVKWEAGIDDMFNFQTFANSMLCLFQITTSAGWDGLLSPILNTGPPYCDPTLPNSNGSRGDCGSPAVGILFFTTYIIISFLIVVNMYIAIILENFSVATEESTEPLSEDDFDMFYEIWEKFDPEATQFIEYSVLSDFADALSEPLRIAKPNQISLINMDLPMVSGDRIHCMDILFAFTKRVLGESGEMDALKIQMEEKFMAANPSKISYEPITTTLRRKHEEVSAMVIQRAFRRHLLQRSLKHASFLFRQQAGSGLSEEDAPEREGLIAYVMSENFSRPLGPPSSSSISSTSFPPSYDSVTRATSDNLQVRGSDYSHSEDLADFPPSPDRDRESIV

As to `O=S(=O)(Nc1ncccn1)c1ccc2c(c1)OCC[C@H]2c1ccc(C(F)(F)F)cc1OC1COC1` [Example-216, (R&S)-4-(2-(oxetan-3-yloxy)-4-(trifluoromethyl)phenyl)-N-(pyrimidin-2-yl)chroman-7-sulfonamide], the figures for the IC50 at Nav 1.7 and at Nav 1.5 (setting [1]) were 2730 nM and over 10 µM, respectively.
Consider `O=S(=O)(Nc1cccnn1)c1ccc2c(c1)OCC[C@@H]2c1ccc(C(F)(F)F)cc1CCC(F)F` (racemic) [Example-214, (R/S)-4-(2-(3,3-difluoropropyl)-4-(trifluoromethyl)phenyl)-N-(pyridazin-3-yl)chroman-7-sulfonamide], for which the IC50 on Nav 1.7 amounted to 2 nM; at Nav 1.5 (read-out: Nav1.5 IC50), 0.635 µM.
On to `COCCCc1cc(C(F)(F)F)ccc1[C@H]1CCOc2cc(S(=O)(=O)Nc3ncccn3)ccc21` [Example 141, (S&R)-4-(2-(3-methoxypropyl)-4-(trifluoromethyl)phenyl)-N-(pyrimidin-2-yl)chroman-7-sulfonamide], for which the IC50 at Nav 1.7 worked out at 69 nM. The “Nav1.5 % inhibition @ 10 μM” value on Nav 1.5 stood at 65%.
Regarding `O=S(=O)(Nc1cccc(F)n1)c1ccc2c(c1)OCCC2c1ccc(C(F)(F)F)cc1O[C@H]1CCOC1` (stereo partly drawn) [Example-180, (R&S)—N-(6-fluoropyridin-2-yl)-4-(2-(((S)-tetrahydrofuran-3-yl)oxy)-4-(trifluoromethyl)phenyl)chroman-7-sulfonamide], the IC50 is 831 nM on Nav 1.7 and over 10 µM at Nav 1.5 (setting [1]).
Regarding `O=S(=O)(Nc1ncccn1)c1ccc2c(c1)OCC[C@@H]2c1ccc(C(F)(F)F)cc1OC1CCOCC1` [Example-169, (R&S)—N-(pyrimidin-2-yl)-4-(2-((tetrahydro-2H-pyran-4-yl)oxy)-4-(trifluoromethyl)phenyl)chroman-7-sulfonamide], the figures for the IC50 on Nav 1.7 and at Nav 1.5 (read-out: Nav1.5 IC50) were 43 nM and 4.89 µM, respectively.
For the compound `O=C1CCCN1c1cc(C(F)(F)F)ccc1[C@H]1CCOc2cc(S(=O)(=O)Nc3cccnn3)ccc21` (racemic) [Example 117, (R/S)-4-(2-(2-oxopyrrolidin-1-yl)-4-(trifluoromethyl)phenyl)-N-(pyridazin-3-yl)chromane-7-sulfonamide], the IC50 was 106 nM at Nav 1.7 and over 10 µM at Nav 1.5 (setting [1]).
As to `CCCc1cc(C(F)(F)F)ccc1C1CCOc2cc(S(=O)(=O)Nc3cccnn3)ccc21` (stereo not drawn) [Example-243], the half-inhibitory concentration (IC50) was 92 nM on Nav 1.7 and 2.41 µM at Nav 1.5 (read-out: Nav1.5 IC50).
In the case of `COCCCCc1cc(C(F)(F)F)ccc1[C@H]1CCOc2cc(S(=O)(=O)Nc3cccnn3)ccc21` (racemic) [Example 150, (R/S)-4-(2-(4-methoxybutyl)-4-(trifluoromethyl)phenyl)-N-(pyridazin-3-yl)chroman-7-sulfonamide], the values for the IC50 on Nav 1.7 and on Nav 1.5 (read-out: Nav1.5 IC50) were 31 nM and 1.43 µM, respectively.
As for `O=C1CCCN1c1cc(C(F)(F)F)ccc1[C@@H]1CCOc2cc(S(=O)(=O)Nc3cccc(F)n3)ccc21` [Example 111, (S&R)—N-(6-Fluoropyridin-2-yl)-4-(2-(2-oxopyrrolidin-1-yl)-4-(trifluoromethyl)phenyl)chroman-7-sulfonamide], at Nav 1.7, the half-inhibitory concentration (IC50) was determined as 814 nM. Also, the “Nav1.5 % inhibition @ 10 μM” value on Nav 1.5 is 67%.
Consider `Cc1ccnc(NS(=O)(=O)c2ccc3c(c2)OCC[C@@H]3c2ccc(C(F)(F)F)cc2-c2ccnn2C)c1` [Example 24, (S&R)-4-(2-(1-methyl-1H-pyrazol-5-yl)-4-(trifluoromethyl)phenyl)-N-(4-methylpyridin-2-yl)chroman-7-sulfonamide], for which the IC50 on Nav 1.7 is 816 nM; on Nav 1.5 (read-out: Nav1.5 IC50), 3.92 µM.
With `CS(=O)(=O)CCc1cc(C(F)(F)F)ccc1[C@H]1CCOc2cc(S(=O)(=O)Nc3ncc(F)cn3)ccc21` [Example 86, (S&R)—N-(5-Fluoropyrimidin-2-yl)-4-(2-(2-(methylsulfonyl)ethyl)-4-(trifluoromethyl)phenyl)chroman-7-sulfonamide], the IC50 was 2390 nM on Nav 1.7 and over 10 µM at Nav 1.5 (setting [1]).
As for `Cc1nc(-c2cc(C(F)(F)F)ccc2[C@@H]2CCOc3cc(S(=O)(=O)Nc4ncccn4)ccc32)cs1` [Example 63, (S&R)-4-(2-(2-Methylthiazol-4-yl)-4-(trifluoromethyl)phenyl)-N-(pyrimidin-2-yl)chroman-7-sulfonamide], the IC50 is 526 nM on Nav 1.7 and over 10 µM on Nav 1.5 (setting [1]).
For the compound `COCCCOc1cc(C(F)(F)F)ccc1[C@@H]1CCOc2cc(S(=O)(=O)Nc3ncccn3)ccc21` [Example 130, (S&R)-4-(2-(3-methoxypropoxy)-4-(trifluoromethyl)phenyl)-N-(pyrimidin-2-yl)chroman-7-sulfonamide], the IC50 at Nav 1.7 is 1690 nM; at Nav 1.5 (setting [1]), over 10 µM.
Take `CCCc1cc(C(F)(F)F)ccc1[C@H]1CCOc2cc(S(=O)(=O)Nc3ncccn3)ccc21` [Example-239, (S&R)-4-(2-propyl-4-(trifluoromethyl)phenyl)-N-(pyrimidin-2-yl)chroman-7-sulfonamide]: at Nav 1.7, the IC50 was found to be 124 nM. Further, the “Nav1.5 % inhibition @ 10 μM” value on Nav 1.5 was 62%.
Take `Cc1ccc(NS(=O)(=O)c2ccc3c(c2)OCC[C@@H]3c2ccc(C(F)(F)F)cc2-c2ccnn2C)nc1` [Example 22, (S&R)-4-(2-(1-methyl-1H-pyrazol-5-yl)-4-(trifluoromethyl)phenyl)-N-(5-methylpyridin-2-yl)chroman-7-sulfonamide]: at Nav 1.7, the IC50 stood at 2060 nM. Besides, the “Nav1.5 % inhibition @ 10 μM” value on Nav 1.5 came out at 74%.
With `CC(C)Oc1ccc([C@@H]2CCOc3cc(S(=O)(=O)Nc4cccc(F)n4)ccc32)c(-c2ccnn2C)c1` [Example 33, (S&R)—N-(6-fluoropyridin-2-yl)-4-(4-isopropoxy-2-(1-methyl-1H-pyrazol-5-yl)phenyl)chroman-7-sulfonamide], the IC50 was 514 nM on Nav 1.7 and over 10 µM at Nav 1.5 (setting [1]).
As to `O=S(=O)(Nc1cccnn1)c1ccc2c(c1)OCC[C@@H]2c1ccc(C(F)(F)F)cc1N1CCOCC1` (racemic) [Example 122, (R/S)-4-(2-morpholino-4-(trifluoromethyl)phenyl)-N-(pyridazin-3-yl)chroman-7-sulfonamide], the 50% inhibitory concentration (IC50) on Nav 1.7 came to 38 nM. This compound also displayed an inhibition at 10 µM against Nav 1.5 of 54%.
Consider `Cc1ccc(NS(=O)(=O)c2ccc3c(c2)OCC[C@H]3c2ccc(C(F)(F)F)cc2-c2ccnn2C)nc1` [Example 21, (S&R)-4-(2-(1-methyl-1H-pyrazol-5-yl)-4-(trifluoromethyl)phenyl)-N-(5-methylpyridin-2-yl)chroman-7-sulfonamide], for which the half-inhibitory concentration (IC50) at Nav 1.7 worked out at 4270 nM. The “Nav1.5 % inhibition @ 10 μM” value at Nav 1.5 was determined as 57%.
For the compound `COCCc1cc(C(F)(F)F)ccc1[C@H]1CCOc2cc(S(=O)(=O)Nc3cccc(F)n3)ccc21` (racemic) [Example 137, (R/S)—N-(6-fluoropyridin-2-yl)-4-(2-(2-methoxyethyl)-4-(trifluoromethyl)phenyl)chroman-7-sulfonamide], the figures for the IC50 on Nav 1.7 and on Nav 1.5 (read-out: Nav1.5 IC50) were 12 nM and 3.64 µM, respectively.
`O=S(=O)(Nc1ncc(F)cn1)c1ccc2c(c1)OCC[C@@H]2c1ccc(C(F)(F)F)cc1CCC(F)F` (racemic) [Example-212, (R/S)-4-(2-(3,3-difluoropropyl)-4-(trifluoromethyl)phenyl)-N-(5-fluoropyrimidin-2-yl)chroman-7-sulfonamide]: the IC50 at Nav 1.7 is 18 nM; on Nav 1.5 (setting [1]), over 10 µM.
Regarding `O=S(=O)(Nc1ccncn1)c1ccc2c(c1)OCC[C@@H]2c1ccc(C(F)(F)F)cc1CCF` (racemic) [Example 155, (R/S)-4-(2-(2-fluoroethyl)-4-(trifluoromethyl)phenyl)-N-(pyrimidin-4-yl)chroman-7-sulfonamide], the results for the 50% inhibitory concentration (IC50) at Nav 1.7 and at Nav 1.5 (setting [1]) were 4 nM and over 10 µM, respectively.
`O=S(=O)(Nc1cccnn1)c1ccc2c(c1)OCC[C@@H]2c1ccc(C(F)(F)F)cc1Cl` (racemic) [Example 107, (S/R)-4-(2-Chloro-4-(trifluoromethyl)phenyl)-N-(pyridazin-3-yl)chroman-7-sulfonamide]: the IC50 on Nav 1.7 was 229 nM; at Nav 1.5 (setting [1]), over 10 µM.
For the compound `COCCc1cc(C(F)(F)F)ccc1[C@H]1CCOc2cc(S(=O)(=O)Nc3ncccn3)ccc21` (racemic) [Example 135, (R/S)-4-(2-(2-methoxyethyl)-4-(trifluoromethyl)phenyl)-N-(pyrimidin-2-yl)chroman-7-sulfonamide], the IC50 at Nav 1.7 was 708 nM; at Nav 1.5 (setting [1]), over 10 µM.
In the case of `O=S(=O)(Nc1ncc(F)cn1)c1ccc2c(c1)OCC[C@@H]2c1ccc(C(F)(F)F)cc1CCCCF` (racemic) [Example 164, (R/S)-4-(2-(4-fluorobutyl)-4-(trifluoromethyl)phenyl)-N-(5-fluoropyrimidin-2-yl)chroman-7-sulfonamide], the IC50 at Nav 1.7 is 61 nM. Besides, testing at 10 µM at Nav 1.5 gave an inhibition of 81%.
On to `Cn1nccc1-c1cc(Cl)ccc1[C@@H]1CCOc2cc(S(=O)(=O)Nc3cccc(F)n3)ccc21` [Example 31, (S&R)-4-(4-chloro-2-(1-methyl-1H-pyrazol-5-yl)phenyl)-N-(6-fluoropyridin-2-yl)chroman-7-sulfonamide], for which the IC50 was 2050 nM at Nav 1.7 and over 10 µM on Nav 1.5 (setting [1]).
With `O=S(=O)(Nc1ncccn1)c1ccc2c(c1)OCCC2c1ccc(C(F)(F)F)cc1O[C@@H]1CCOC1` (stereo partly drawn) [Example-186, (S&R)—N-(pyrimidin-2-yl)-4-(2-(((R)-tetrahydrofuran-3-yl)oxy)-4-(trifluoromethyl)phenyl)chroman-7-sulfonamide], the 50% inhibitory concentration (IC50) on Nav 1.7 amounted to 83 nM. Besides, at Nav 1.5, the “Nav1.5 % inhibition @ 10 μM” value is recorded as 46%.
Consider `Cc1cccc(NS(=O)(=O)c2ccc3c(c2)OCC[C@@H]3c2ccc(C(F)(F)F)cc2-c2ccnn2C)n1` [Example 20, (S&R)-4-(2-(1-methyl-1H-pyrazol-5-yl)-4-(trifluoromethyl)phenyl)-N-(6-methylpyridin-2-yl)chroman-7-sulfonamide], for which, on Nav 1.7, the IC50 stood at 245 nM.
Consider `O=C(O)c1ccc(-c2cc(C(F)(F)F)ccc2[C@@H]2CCOc3cc(S(=O)(=O)Nc4ncccn4)ccc32)cc1` [Example-187, (S&R)-2′-(7-(N-(pyrimidin-2-yl)sulfamoyl)chroman-4-yl)-5′-(trifluoromethyl)-[1,1′-biphenyl]-4-carboxylic acid], for which, at Nav 1.7, the 50% inhibitory concentration (IC50) worked out at 2600 nM.
